Laboratory results from ChEMBL document CHEMBL3352020, “Targeting matrix metalloproteinases: exploring the dynamics of the s1' pocket in the design of selective, small molecule inhibitors” (J Med Chem, 2014).

How the values were obtained:
Neutrophil collagenase = Neutrophil collagenase (Homo sapiens, UniProt P22894); test: Inhibition of MMP8 (unknown origin)
Stromelysin-1 = Stromelysin-1 (Homo sapiens, UniProt P08254); test: Inhibition of MMP3 (unknown origin)
Interstitial collagenase = target: T1, Interstitial collagenase (Homo sapiens, UniProt P03956); test: Inhibition of MMP1 (unknown origin)
T1 sequence (P03956 whole entry): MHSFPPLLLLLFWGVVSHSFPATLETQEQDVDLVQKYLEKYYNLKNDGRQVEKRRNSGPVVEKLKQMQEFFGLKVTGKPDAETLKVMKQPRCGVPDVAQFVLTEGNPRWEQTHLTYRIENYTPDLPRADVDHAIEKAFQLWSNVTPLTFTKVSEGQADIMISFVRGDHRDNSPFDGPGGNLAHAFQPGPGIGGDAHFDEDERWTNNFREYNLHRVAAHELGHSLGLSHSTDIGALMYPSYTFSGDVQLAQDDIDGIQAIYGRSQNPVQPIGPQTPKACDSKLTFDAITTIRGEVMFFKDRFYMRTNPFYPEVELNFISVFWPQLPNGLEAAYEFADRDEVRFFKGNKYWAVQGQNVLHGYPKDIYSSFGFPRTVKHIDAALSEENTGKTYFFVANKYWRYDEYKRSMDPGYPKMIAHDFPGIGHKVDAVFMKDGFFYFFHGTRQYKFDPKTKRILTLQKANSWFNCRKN

[1] = target: Matrix metalloproteinase-9 (Homo sapiens, UniProt P14780); test: Inhibition of MMP9 (unknown origin)
[2] = target: 72 kDa type IV collagenase (Homo sapiens, UniProt P08253); test: Inhibition of MMP2 (unknown origin)
Matrilysin = target: T2, Matrilysin (Homo sapiens, UniProt P09237); test: Inhibition of MMP7 (unknown origin)
T2 sequence (P09237 whole entry): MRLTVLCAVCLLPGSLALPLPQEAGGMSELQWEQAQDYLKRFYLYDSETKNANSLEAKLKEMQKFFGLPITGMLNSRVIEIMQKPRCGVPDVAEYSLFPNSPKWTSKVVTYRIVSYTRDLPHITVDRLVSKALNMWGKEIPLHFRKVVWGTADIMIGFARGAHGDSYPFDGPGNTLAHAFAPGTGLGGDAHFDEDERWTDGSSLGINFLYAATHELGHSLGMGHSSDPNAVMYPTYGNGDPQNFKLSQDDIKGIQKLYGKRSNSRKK

[3] = target: T3, Matrix metalloproteinase-17 (Homo sapiens, UniProt Q9ULZ9); test: Inhibition of MMP17 (unknown origin)
T3 sequence (Q9ULZ9 whole entry): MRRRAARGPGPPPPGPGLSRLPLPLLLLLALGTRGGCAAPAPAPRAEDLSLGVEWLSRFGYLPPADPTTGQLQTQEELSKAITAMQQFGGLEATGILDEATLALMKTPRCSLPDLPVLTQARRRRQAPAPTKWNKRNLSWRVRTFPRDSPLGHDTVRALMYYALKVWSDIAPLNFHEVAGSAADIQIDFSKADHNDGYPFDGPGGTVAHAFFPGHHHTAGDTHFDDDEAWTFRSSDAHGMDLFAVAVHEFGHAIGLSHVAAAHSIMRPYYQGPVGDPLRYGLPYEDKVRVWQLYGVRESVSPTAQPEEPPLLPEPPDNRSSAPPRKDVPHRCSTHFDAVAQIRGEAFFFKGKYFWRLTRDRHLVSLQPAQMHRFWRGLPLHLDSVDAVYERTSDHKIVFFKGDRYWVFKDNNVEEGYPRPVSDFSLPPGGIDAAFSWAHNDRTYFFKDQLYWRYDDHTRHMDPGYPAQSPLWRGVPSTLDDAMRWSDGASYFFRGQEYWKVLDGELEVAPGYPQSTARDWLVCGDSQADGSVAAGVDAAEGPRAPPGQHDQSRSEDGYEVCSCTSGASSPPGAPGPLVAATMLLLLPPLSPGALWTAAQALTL

[4] = target: Matrix metalloproteinase-14 (Homo sapiens, UniProt P50281); test: Inhibition of MMP14 (unknown origin)
[5] = target: Macrophage metalloelastase (Homo sapiens, UniProt P39900); test: Inhibition of MMP12 (unknown origin)
Macrophage metalloelastase, sequence (P39900 whole entry): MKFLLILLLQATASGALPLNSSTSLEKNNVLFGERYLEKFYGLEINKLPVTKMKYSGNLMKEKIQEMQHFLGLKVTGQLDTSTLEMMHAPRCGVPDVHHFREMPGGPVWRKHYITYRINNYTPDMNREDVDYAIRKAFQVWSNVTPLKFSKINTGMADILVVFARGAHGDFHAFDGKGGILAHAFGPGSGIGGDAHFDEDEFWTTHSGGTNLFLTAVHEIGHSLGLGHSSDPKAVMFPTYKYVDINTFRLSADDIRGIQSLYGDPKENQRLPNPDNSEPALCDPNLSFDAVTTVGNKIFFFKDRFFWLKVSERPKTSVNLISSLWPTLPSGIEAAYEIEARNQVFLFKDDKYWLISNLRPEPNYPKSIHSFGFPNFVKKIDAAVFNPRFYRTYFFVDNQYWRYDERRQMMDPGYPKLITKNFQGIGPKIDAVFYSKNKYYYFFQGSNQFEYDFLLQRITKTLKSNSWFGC

Stromelysin-1, sequence (P08254 whole entry): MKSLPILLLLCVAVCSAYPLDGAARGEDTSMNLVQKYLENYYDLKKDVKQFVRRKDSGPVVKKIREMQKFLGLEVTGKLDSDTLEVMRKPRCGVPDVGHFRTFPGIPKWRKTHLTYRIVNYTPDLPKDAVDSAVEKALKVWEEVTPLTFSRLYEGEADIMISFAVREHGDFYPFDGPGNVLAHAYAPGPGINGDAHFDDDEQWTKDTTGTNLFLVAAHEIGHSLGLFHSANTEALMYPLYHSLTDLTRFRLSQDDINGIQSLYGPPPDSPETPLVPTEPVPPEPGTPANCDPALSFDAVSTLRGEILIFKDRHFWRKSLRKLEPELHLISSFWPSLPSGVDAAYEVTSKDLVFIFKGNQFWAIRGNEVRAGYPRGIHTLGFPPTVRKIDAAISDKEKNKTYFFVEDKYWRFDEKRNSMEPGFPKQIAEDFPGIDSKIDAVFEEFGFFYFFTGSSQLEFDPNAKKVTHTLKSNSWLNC
72 kDa type IV collagenase, sequence (P08253 whole entry): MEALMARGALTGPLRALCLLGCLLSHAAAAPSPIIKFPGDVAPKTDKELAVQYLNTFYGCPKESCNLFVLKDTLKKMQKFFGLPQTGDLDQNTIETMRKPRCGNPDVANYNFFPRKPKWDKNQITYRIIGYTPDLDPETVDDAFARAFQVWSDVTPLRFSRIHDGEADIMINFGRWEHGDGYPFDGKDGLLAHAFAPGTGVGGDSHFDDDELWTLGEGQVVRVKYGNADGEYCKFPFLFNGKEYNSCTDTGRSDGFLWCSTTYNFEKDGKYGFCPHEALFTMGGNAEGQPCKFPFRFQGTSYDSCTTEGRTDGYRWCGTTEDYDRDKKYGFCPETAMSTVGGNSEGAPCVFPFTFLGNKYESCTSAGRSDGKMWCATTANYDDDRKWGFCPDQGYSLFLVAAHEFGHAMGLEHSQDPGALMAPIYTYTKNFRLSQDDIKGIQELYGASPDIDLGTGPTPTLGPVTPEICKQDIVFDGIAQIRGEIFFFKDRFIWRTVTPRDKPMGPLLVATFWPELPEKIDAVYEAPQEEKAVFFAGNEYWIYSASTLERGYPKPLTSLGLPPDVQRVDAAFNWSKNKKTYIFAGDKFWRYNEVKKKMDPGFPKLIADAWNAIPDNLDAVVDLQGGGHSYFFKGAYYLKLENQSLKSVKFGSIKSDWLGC
Neutrophil collagenase, sequence (P22894 whole entry): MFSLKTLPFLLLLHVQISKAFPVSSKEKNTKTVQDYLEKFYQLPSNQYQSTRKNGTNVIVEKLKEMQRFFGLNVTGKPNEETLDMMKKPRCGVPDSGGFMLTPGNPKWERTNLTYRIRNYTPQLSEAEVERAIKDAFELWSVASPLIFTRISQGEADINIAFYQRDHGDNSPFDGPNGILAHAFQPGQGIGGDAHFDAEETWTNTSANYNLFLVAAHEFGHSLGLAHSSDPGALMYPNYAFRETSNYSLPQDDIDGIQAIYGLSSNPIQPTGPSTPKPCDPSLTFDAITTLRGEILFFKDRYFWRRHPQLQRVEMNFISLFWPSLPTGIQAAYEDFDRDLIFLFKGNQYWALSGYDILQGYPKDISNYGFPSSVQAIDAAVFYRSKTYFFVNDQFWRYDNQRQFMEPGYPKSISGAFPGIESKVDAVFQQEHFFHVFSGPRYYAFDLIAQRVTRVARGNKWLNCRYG
Matrix metalloproteinase-9, sequence (P14780 whole entry): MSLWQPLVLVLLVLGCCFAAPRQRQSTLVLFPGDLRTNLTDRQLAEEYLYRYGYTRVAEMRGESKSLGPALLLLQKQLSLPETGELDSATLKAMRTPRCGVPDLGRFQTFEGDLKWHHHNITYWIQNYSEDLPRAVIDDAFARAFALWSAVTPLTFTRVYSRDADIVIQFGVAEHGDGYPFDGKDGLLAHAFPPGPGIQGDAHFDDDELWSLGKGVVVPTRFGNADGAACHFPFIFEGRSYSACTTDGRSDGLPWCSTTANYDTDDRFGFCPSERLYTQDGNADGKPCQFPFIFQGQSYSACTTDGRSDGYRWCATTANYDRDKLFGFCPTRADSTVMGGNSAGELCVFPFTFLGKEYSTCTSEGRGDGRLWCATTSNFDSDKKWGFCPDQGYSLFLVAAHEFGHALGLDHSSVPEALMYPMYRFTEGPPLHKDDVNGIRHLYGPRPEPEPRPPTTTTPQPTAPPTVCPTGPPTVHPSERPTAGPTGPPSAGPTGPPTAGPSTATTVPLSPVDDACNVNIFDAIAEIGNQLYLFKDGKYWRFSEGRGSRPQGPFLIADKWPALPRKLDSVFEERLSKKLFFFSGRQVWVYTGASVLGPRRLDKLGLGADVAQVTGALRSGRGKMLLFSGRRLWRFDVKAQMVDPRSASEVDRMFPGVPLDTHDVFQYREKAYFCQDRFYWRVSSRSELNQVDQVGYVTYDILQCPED

O=C1N=C(O)NC(=O)[C@@]1(c1ccccc1)N1CCC(CCO)CC1 was tested. Which IC50 (Neutrophil collagenase) did it give?
The IC50 was 1700 nM.

What about the IC50 (Stromelysin-1) of the same compound?
The IC50 was 30000 nM.

For O=C(CC1(S(=O)(=O)c2ccc(Oc3ccccc3)cc2)CCOCC1)NO, which Ki (Interstitial collagenase) is on record?
The Ki was 23 nM.

Which IC50 (Interstitial collagenase) does the source give for CC#CCOc1ccc(Oc2ccc(S(=O)(=O)NC(C(=O)NO)C(C)C)cc2)cc1 (stereo not drawn) here?
Its IC50 is 40 nM.

Which results are given for CN(C)c1ccc(-c2cn(-c3ccc(S(=O)(=O)C4(C(=O)NO)CCNCC4)cc3)nn2)cc1?
IC50 [1]: 43.9 nM; IC50 [2]: 1.7 nM

CC(C)N(C)c1ccc(-c2cn(-c3ccc(S(=O)(=O)C4(C(=O)NO)CCNCC4)cc3)nn2)cc1 was tested. Which IC50 [1] did it give?
The IC50 was 346 nM.

What about the IC50 [2] of the same compound?
The IC50 was 3 nM.

What does the source list for O=C(OCc1ccccc1)c1cn2c(=O)n(Cc3ccccc3)c(=O)cc2s1?
IC50 (Matrilysin): > 30000 nM; IC50 [1]: > 30000 nM; IC50 [2]: > 30000 nM; IC50 (Neutrophil collagenase): > 30000 nM; IC50 [3]: > 30000 nM; IC50 (Stromelysin-1): > 30000 nM; IC50 (Interstitial collagenase): > 30000 nM; IC50 [4]: > 30000 nM; IC50 [5]: > 30000 nM

How did the IC50 (Matrilysin) turn out when Cn1c(=O)n(Cc2ccc(C(=O)O)cc2)c(=O)c2cc(C#CCc3ccccc3)ccc21 was run?
Its IC50 is over 30000 nM.

What about the IC50 [1] of the same compound?
The IC50 was over 30000 nM.

What about the IC50 [2] of the same compound?
The IC50 was over 30000 nM.

What about the IC50 (Neutrophil collagenase) of the same compound?
The IC50 was over 30000 nM.

And the IC50 [3]?
Its IC50 is over 30000 nM.

And the IC50 (Stromelysin-1)?
Its IC50 is over 30000 nM.

And the IC50 (Interstitial collagenase)?
Its IC50 is over 30000 nM.

What about the IC50 [4] of the same compound?
The IC50 was over 30000 nM.

And the IC50 [5]?
Its IC50 is over 30000 nM.

Which results are given for NC(=O)CC1CCCc2sc3nc(C(=O)NCc4ccc5c(c4)NC(=O)CO5)[nH]c(=O)c3c21 (racemic)?
IC50 (Matrilysin): > 2500 nM; IC50 [1]: > 2500 nM; IC50 [2]: > 2500 nM; IC50 (Stromelysin-1): > 2500 nM; IC50 (Interstitial collagenase): > 2500 nM; IC50 [4]: > 2500 nM; IC50 [5]: > 2500 nM
